Test results published in publication PMC7883873, “Discovery of New Catalytic Topoisomerase II Inhibitors for Anticancer Therapeutics” (Frontiers in Oncology, 2021).

What was measured:
TOP2A [1] = target: T1, TOP2A (Homo sapiens, UniProt P11388); assay: Relaxation and K-DNA decatenation assays of candidates and T60 derivatives (SAR); format: biochemical; set-up: full-length human TOP2A and TOP2B protein (TopoGEN and Inspiralis respectively); purchased TopoGEN TG1001 (human TOP2 assay kit); conditions: compared with T60
Method: (§1) The human TOP2 assay kit (#TG1001, TopoGEN, Buena Vista, CO) and TOP2B (HTB205, Inspiralis, UK) were used for K-DNA decatenation assays. […] The reaction was incubated at 37C for 2 h after which 4 µl stop solution (5× buffer is 5% Sarkosyl, 0.125% bromophenol blue, 25% glycerol) was added. The reaction was resolved by electrophoresis on a 0.8% agarose gel at 60 V and stained with 0.5 µg/ml ethidium bromide for 15 min. DNA bands were visualized using a gel imager (Gel Doc™ EZ System) and quantified using the Image Studio™ Lite Quantification Software.
(§2) The human TOP2A and TOP2B were used to perform DNA relaxation assays. […] The reaction was incubated at 37C for 2 h and stopped by adding 2 µl of 10% SDS and 1 µl of 250 mM of EDTA, followed by the addition of 50 µg/ml of proteinase K at 45 C for 1 h. The reaction was then resolved by electrophoresis on a 1% agarose gel at 80 V and stained with 0.5 µg/ml ethidium bromide for 15 min. DNA bands were visualized using a gel imager (Gel Doc™ EZ System) and quantified using the Image Studio™ Lite Quantification Software.

TOP2A (431–1193) = target: T2, TOP2A (431–1193) (Homo sapiens, UniProt P11388); assay: Bio-Layer Interferometry (BLI) assay; format: binding
T2 construct: was incorporated with TOP2A (431–1193); made in house; host or cells: Escherichia coli BL21 co-expressing biotin ligase
Method: BLI assays were performed as we previously reported ([33]). The direct and reversible interactions between small molecules and TOP2 protein were quantified by BLI using OctetRED (ForteBio, Bohemia, NY). Human TOP2A (431–1,193) was produced in situ with AviTag technology. The AviTag sequence ([…]) followed by a six-residue glycine serine linker (GSGSGS) was incorporated with TOP2A (431–1193). Escherichia coli BL21 containing both biotin ligase and TOP2A (431–1193) vectors were induced with 0.5 mM isopropyl-β-D-thiogalactopyranoside (IPTG) and biotin at 16C overnight. The bacteria were then lysed by sonication, and the resulting lysate was purified by immobilized metal ion affinity chromatography (IMAC) with nickel nitrilotriacetic acid (NiNTA) resin and cation-exchange chromatography (HiTrap SP). Purified TOP2A (431–1193) (50 μg/ml) was bound to the super-streptavidin sensors over 50 min at room temperature. The sensor was kept in an assay buffer [20 mM N-2-hydroxyethylpiperazine-N0 -2-ethanesulfonic acid (HEPES), 150 mM NaCl, 500 μM tris(2-carboxyethyl) phosphine (TCEP), and 1% dimethylsulfoxide (DMSO)], when small molecules were added. After 200 s, a wash buffer was used to flush the sensor plate for 100 s. BLI signal was recorded throughout the 300 s following the manufacture’s instruction from OctetRED (ForteBio, Bohemia, NY).

K562 xenografts = assay: K562 xenografts, intra-tumor polymeric paste; format: in vivo, nude mice (Nu/Nu); conditions: single 30 µl paste, 1% T60 or T633, 0.3% etoposide
Method: The polymeric paste was prepared with 50% poly-DL-lactide-coglycolide (PLGA) and 50% PEG 300 (w/w) as we have reported ([57]). […] The density of the paste was determined to be 1.2 g/ml ( ± 3%). One million K562 cells were inoculated subcutaneously in bilateral flanks of nude mice (Nu/Nu). […] Tumor volumes were measured every three days and were calculated by length × width × depth × 0.5236. Mice were euthanized when tumor volumes reached 15% of body weight or weight loss >20% occurred. The remaining mice were euthanized after the control group was euthanized. All animal procedures were under the guidelines of the Canadian Council on Animal Care and were approved by the UBC Animal Care Committee (# A19-0256).

TOP2B = TOP2B (Homo sapiens, UniProt Q02880); assay: DNA cleavage assay; format: biochemical; set-up: full-length human TOP2A and TOP2B protein (TopoGEN and Inspiralis respectively); purchased Inspiralis HTB205; conditions: 200 µM, buffer without ATP
Method: (§3) The reactions were incubated in 37C for 30 min and stopped by adding 2 µl of 10% SDS and 1 µl of 250 mM of EDTA, followed by the addition of 50 µg/ml of proteinase K at 45C for 30 min. The reaction was then resolved by electrophoresis on a 1% agarose gel containing […] ethidium bromide in TAE buffer at 60 V. DNA bands were visualized using a gel imager (Gel Doc™ EZ System) and quantified by using the Image Studio™ Lite Quantification Software.

TOP2A [2] = target: T1, TOP2A; assay: DNA cleavage assay; format: biochemical; set-up: full-length human TOP2A and TOP2B protein (TopoGEN and Inspiralis respectively); purchased TopoGEN TG1001 (human TOP2 assay kit); conditions: 200 µM, buffer without ATP
Method: as §3

salmon sperm DNA = assay: Ethidium bromide displacement assay; format: binding; conditions: increasing doses; 100 µg/ml DNA, 2 µg/ml ethidium bromide
Method: Ethidium bromide displacement assay was performed as previously described ([49], [50]) using Amsacrine (mAMSA) as a positive control. In a 20 µl reaction, compounds were mixed with 100 µg/ml of salmon sperm DNA and 2 µg/ml of ethidium bromide in a fluorescence buffer containing 10 mM HEPES, pH 7.9, 100 mM KCl, 5 mM MgCl2, 0.1 mM EDTA, pH 8.0. Triplicate reactions were subjected to fluorescence emission of 590 nm and excitation of 535 nm. Signals were detected by using the Multimode Microplate Reader, Infinite® F500.

TOP2A [3] = target: T1, TOP2A; assay: K-DNA decatenation assay; format: biochemical; set-up: full-length human TOP2A and TOP2B protein (TopoGEN and Inspiralis respectively); purchased TopoGEN TG1001 (human TOP2 assay kit); conditions: Figure 3A
Method: as §1

TOP2A [4] = target: T1, TOP2A; assay: DNA relaxation assay (supercoiled pHOT-1 plasmid); format: biochemical; set-up: full-length human TOP2A and TOP2B protein (TopoGEN and Inspiralis respectively); purchased TopoGEN TG1001 (human TOP2 assay kit); conditions: Figure 3B
Method: as §2

TOP2A full-length = TOP2A full-length (Homo sapiens, UniProt P11388 1-1531); assay: EMSA; 2 uM protein, 300 nM DNA, 3 mM Mg2+, no inhibitor; 20 mM HEPES-NaOH pH 7.4, 2 mM DTT, 3 mM MgCl2, 0.05% NP-40, protease inhibitors, 0.1 ug poly[dI:dC] in 20 ul, 30 min at 37 C; 4% native gel in 0.5x TBE; conditions: protein: commercial; label: IRDye700; blunt; self-complementary strand, 2 copies
TOP2B full-length = TOP2B full-length (Homo sapiens, UniProt Q02880 1-1626); assay: as above; conditions: protein: commercial; label: IRDye700; blunt; self-complementary strand, 2 copies
TOP2A (431-1193) = TOP2A (431-1193) (Homo sapiens, UniProt P11388 431-1193); assay: EMSA; 30 uM protein, 300 nM DNA, 3 mM Mg2+, no inhibitor; 20 mM HEPES-NaOH pH 7.4, 2 mM DTT, 3 mM MgCl2, 0.05% NP-40, protease inhibitors, 0.1 ug poly[dI:dC] in 20 ul, 30 min at 37 C; 4% native gel in 0.5x TBE; conditions: protein: recombinant; (NiNTA purified); label: IRDye700; blunt; self-complementary strand, 2 copies
TOP2A (431-1193), sequence (P11388 431-1193): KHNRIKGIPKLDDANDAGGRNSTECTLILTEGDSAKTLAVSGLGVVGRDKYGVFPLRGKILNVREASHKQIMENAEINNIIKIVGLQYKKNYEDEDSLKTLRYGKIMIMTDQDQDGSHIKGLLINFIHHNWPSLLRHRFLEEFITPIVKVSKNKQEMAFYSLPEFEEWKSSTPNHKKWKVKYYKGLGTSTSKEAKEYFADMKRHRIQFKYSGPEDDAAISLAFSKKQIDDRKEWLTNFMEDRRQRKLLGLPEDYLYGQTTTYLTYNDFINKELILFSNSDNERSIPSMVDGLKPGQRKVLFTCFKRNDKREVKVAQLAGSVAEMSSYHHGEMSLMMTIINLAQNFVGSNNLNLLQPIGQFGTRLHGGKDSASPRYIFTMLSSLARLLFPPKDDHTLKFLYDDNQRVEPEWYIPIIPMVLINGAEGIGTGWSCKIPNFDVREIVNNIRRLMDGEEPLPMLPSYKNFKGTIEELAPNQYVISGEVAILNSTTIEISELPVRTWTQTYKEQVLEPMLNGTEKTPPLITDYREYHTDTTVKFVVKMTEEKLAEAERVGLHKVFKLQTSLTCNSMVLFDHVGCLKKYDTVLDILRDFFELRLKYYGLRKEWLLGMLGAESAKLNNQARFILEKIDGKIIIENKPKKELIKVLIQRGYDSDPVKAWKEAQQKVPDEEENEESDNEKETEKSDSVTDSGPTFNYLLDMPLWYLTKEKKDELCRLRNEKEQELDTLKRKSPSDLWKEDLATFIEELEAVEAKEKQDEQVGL

T2 sequence (P11388 431-1193): as above
T1 sequence (P11388 whole entry): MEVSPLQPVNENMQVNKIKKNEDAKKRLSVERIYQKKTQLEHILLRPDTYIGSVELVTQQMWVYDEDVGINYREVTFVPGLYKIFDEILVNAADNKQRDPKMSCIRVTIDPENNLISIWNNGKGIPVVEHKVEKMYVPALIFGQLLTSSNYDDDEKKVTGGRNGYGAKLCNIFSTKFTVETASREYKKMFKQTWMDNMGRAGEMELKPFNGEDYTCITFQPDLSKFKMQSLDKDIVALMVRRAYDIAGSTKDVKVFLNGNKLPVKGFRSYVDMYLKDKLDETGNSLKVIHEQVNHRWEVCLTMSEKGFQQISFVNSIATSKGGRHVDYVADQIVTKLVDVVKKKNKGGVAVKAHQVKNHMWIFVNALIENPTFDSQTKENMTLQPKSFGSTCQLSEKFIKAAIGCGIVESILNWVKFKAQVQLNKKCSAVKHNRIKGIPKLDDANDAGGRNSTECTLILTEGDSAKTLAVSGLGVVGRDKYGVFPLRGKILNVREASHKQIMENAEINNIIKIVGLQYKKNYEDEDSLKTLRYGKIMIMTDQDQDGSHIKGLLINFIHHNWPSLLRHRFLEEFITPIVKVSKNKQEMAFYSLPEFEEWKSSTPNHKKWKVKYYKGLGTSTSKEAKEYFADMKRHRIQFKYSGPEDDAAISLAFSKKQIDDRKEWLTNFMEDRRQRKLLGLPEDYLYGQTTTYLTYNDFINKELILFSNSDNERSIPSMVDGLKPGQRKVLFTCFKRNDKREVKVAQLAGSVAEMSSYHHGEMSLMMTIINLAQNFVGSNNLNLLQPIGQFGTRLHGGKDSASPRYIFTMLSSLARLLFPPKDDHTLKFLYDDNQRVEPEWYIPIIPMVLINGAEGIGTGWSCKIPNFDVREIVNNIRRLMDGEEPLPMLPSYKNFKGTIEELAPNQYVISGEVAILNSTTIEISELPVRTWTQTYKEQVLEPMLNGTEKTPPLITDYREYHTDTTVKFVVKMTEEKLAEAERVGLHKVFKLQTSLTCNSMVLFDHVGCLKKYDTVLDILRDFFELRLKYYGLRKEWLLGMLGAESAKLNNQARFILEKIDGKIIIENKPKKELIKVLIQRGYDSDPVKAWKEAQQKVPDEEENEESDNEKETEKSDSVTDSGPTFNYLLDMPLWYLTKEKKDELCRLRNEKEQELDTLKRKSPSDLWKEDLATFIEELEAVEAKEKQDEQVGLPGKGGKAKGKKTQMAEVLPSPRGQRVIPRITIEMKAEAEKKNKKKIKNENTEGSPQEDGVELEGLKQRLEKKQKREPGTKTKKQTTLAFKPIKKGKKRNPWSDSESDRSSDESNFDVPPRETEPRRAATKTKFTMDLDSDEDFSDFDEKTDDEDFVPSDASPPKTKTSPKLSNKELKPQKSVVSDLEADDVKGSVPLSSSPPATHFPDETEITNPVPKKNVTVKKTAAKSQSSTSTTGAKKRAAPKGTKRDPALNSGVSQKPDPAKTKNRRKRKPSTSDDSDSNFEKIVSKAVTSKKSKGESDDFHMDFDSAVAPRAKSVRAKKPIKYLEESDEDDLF
TOP2A full-length, sequence (P11388 whole entry): as above
TOP2B, sequence (Q02880 whole entry): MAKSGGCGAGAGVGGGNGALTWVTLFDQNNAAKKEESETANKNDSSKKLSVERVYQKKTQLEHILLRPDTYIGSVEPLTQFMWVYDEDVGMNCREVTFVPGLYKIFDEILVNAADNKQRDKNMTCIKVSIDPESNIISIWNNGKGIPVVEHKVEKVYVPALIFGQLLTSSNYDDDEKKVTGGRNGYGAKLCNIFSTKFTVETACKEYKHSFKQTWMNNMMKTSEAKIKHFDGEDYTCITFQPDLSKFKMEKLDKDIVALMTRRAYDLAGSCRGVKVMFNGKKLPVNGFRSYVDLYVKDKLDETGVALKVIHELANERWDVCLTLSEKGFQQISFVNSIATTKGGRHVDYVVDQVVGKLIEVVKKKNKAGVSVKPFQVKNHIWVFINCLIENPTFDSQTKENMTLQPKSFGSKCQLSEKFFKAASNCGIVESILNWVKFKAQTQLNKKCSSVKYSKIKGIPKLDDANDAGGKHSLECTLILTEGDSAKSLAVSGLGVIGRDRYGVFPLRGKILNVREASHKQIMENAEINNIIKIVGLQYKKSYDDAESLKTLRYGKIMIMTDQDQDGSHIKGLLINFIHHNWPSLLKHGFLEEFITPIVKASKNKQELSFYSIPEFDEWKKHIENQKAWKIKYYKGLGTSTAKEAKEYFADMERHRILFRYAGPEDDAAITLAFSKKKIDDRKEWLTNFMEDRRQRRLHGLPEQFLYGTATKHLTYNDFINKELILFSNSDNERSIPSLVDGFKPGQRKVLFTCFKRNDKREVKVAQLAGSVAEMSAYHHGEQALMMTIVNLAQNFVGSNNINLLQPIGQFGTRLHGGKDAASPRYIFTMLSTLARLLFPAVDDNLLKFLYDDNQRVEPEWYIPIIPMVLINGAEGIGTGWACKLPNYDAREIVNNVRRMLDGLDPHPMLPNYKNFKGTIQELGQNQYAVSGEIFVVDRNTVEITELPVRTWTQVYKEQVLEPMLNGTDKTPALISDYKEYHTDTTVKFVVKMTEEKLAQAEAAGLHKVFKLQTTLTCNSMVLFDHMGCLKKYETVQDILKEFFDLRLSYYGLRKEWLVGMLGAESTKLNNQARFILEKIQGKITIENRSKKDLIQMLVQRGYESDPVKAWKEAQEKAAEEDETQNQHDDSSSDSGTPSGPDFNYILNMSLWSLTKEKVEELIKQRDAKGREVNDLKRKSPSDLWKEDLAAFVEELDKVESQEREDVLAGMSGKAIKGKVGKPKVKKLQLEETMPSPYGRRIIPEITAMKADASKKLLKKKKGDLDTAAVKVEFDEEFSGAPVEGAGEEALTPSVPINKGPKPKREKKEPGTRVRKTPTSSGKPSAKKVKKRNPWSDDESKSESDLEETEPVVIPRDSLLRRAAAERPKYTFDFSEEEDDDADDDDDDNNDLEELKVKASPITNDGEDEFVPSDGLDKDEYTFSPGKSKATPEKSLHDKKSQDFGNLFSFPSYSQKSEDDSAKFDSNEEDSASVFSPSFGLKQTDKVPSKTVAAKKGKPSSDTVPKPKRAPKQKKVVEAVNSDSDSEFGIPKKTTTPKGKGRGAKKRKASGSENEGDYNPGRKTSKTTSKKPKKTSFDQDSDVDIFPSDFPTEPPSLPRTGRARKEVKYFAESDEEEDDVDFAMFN
TOP2B full-length, sequence (Q02880 whole entry): as above

Q: `O=C(Nc1ccc(Nc2ccccc2)cc1)c1ccccc1S` [T609] was tested. Which “Activity on TOP2” value (TOP2A [1]) did it give?
A: Its value is “most active compound”.

Q: `O=C(Nc1ccc(Nc2ccccc2O)cc1)c1ccc[nH]c1=S` [T620] was tested. Which “Activity on TOP2” value (TOP2A [1]) did it give?
A: The value was “increased activity”.

Q: Which “Activity on TOP2” value (TOP2A [1]) does the source give for `O=C(Nc1ccc(Nc2ccc(O)cc2)cc1)c1ccc[nH]c1=S` [T625] here?
A: Its value is “increased activity”.

Q: How did the “Activity on TOP2” value (TOP2A [1]) turn out when `CN(C(=O)c1ccc[nH]c1=S)c1ccc(Nc2ccccc2)cc1` [T627] was run?
A: The value was “complete abolishment of T60 activity”.

Q: `Cc1cc(NC(=O)c2ccc[nH]c2=S)ccc1Nc1ccccc1` [T630] was tested. Which “Activity on TOP2” value (TOP2A [1]) did it give?
A: The value was “stronger activities than T60”.

Q: What does the source list for `Cc1cc(Nc2ccccc2)ccc1NC(=O)c1ccc[nH]c1=S` [T633]?
A: Hill slope, BLI (TOP2A (431–1193); dose-response 0-50 μM): 5±1.5; Kd (TOP2A (431–1193); dose-response 0-50 μM, estimated): 35 ± 3 µM; Binding to TOP2A (431–1193), BLI curves (TOP2A (431–1193); increasing concentrations): reversible and dose-response binding; Tumor growth at the end of two weeks (K562 xenografts): strongly inhibit tumor growth comparable to etoposide; Activity on TOP2 (TOP2A [1]): stronger activities than T60

Q: Which “Activity on TOP2” value (TOP2A [1]) does the source give for `O=C(Nc1ccc(Nc2ccccc2)cc1O)c1ccc[nH]c1=S` [T634] here?
A: The value was “stronger activities than T60”.

Q: For `O=C(Nc1ccc(Nc2ccccc2)cc1)c1ccnnc1S` [T635], which “Activity on TOP2” value (TOP2A [1]) is on record?
A: The value was “nearly inactive”.

Q: With `O=C(Nc1ccc(Nc2ccccc2)cc1)c1c[nH]cnc1=S` [T636] as the molecule, how does the “Activity on TOP2” value (TOP2A [1]) read?
A: Its value is “nearly inactive”.

Q: Which results are given for `COc1cc([C@@H]2c3cc4c(cc3[C@@H](O[C@@H]3O[C@@H]5CO[C@@H](C)O[C@H]5[C@H](O)[C@H]3O)[C@H]3COC(=O)[C@H]23)OCO4)cc(OC)c1O` [etoposide]?
A: Tumor volumes versus vehicle group at the end of four weeks (K562 xenografts): statistically lower than the vehicle group; Induction of linear plasmid (DNA cleavage) with TOP2B (TOP2B): induced detectable linear plasmid; Induction of linear plasmid (DNA cleavage) with TOP2A (TOP2A [2]): induced detectable linear plasmid

Q: For `COc1cc(NS(C)(=O)=O)ccc1Nc1c2ccccc2nc2ccccc12` [m-AMSA, Amsacrine, reference compound], which “Fluorescence of ethidium bromide/DNA complex (DNA intercalation)” value (salmon sperm DNA) is on record?
A: Its value is “reduced”.

Q: Which “Inhibition of TOP2A mediated K-DNA decatenation” value (TOP2A [3]) does the source give for ICRF193 [reference compound] here?
A: Its value is “inhibited”.

Q: What about the “Inhibition of TOP2A activity changing supercoiled into relaxed plasmid DNA” value (TOP2A [4]) of the same molecule?
A: The value was “inhibited”.

B1: 5ZRF (dsDNA)
DNA 1: AGCCGAGCTGCAGCTCGGCT
DNA 2: AGCCGAGCTGCAGCTCGGCT
Q: Does B1 bind (TOP2A full-length)?
A: Result: binds

Q: Does B1 bind (TOP2B full-length)?
A: Result: binds

Q: Does B1 bind (TOP2A (431-1193))?
A: Result: binds
